Laboratory results taken from PubChem BioAssay (NCI).
Where “and” joins values, the source holds several entries; their conditions need not be identical. Equal values may be shown once.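 Each compound was tested at five concentrations against cells in 96-well plates for 48 hours. GI50: concentration for 50% inhibition of growth. TGI: total growth inhibition.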

Columns and labels:
Test in all cases: NCI-60 cell line screen, 48 h
[1] = tested on: 786-0 renal
[2] = tested on: A498 renal
[3] = tested on: A549 NSCLC
[4] = tested on: ACHN renal
[5] = tested on: BT-549 breast
[6] = tested on: CAKI-1 renal
[7] = tested on: CCRF-CEM leukemia
[8] = tested on: COLO 205 colon
[9] = tested on: DU-145 prostate
[10] = tested on: EKVX NSCLC
[11] = tested on: HCC-2998 colon
[12] = tested on: HCT-116 colon
[13] = tested on: HCT-15 colon
[14] = tested on: HL-60(TB) leukemia
[15] = tested on: HOP-62 NSCLC
[16] = tested on: HOP-92 NSCLC
[17] = tested on: HS 578T breast
[18] = tested on: HT29 colon
[19] = tested on: IGROV1 ovarian
[20] = tested on: K-562 leukemia
[21] = tested on: KM12 colon
[22] = tested on: LOX IMVI melanoma
[23] = tested on: M14 melanoma
[24] = tested on: MALME-3M melanoma
[25] = tested on: MCF7 breast
[26] = tested on: MDA-MB-231 breast
[27] = tested on: MDA-MB-435
[28] = tested on: MDA-N
[29] = tested on: MOLT-4 leukemia
[30] = tested on: NCI-H226 lung
[31] = tested on: NCI-H23 lung
[32] = tested on: NCI-H460 lung
[33] = tested on: NCI-H522 lung
[34] = tested on: NCI/ADR-RES ovarian
[35] = tested on: OVCAR-3 ovarian
[36] = tested on: OVCAR-4 ovarian
[37] = tested on: OVCAR-5 ovarian
[38] = tested on: OVCAR-8 ovarian
[39] = tested on: PC-3 prostate
[40] = tested on: RPMI-8226 leukemia
[41] = tested on: RXF 393 renal
[42] = tested on: SF-268 CNS
[43] = tested on: SF-295 CNS
[44] = tested on: SF-539 CNS
[45] = tested on: SK-MEL-2 melanoma
[46] = tested on: SK-MEL-28 melanoma
[47] = tested on: SK-MEL-5 melanoma
[48] = tested on: SK-OV-3 ovarian
[49] = tested on: SN12C renal
[50] = tested on: SNB-19 CNS
[51] = tested on: SNB-75 CNS
[52] = tested on: SR leukemia
[53] = tested on: SW-620 colon
[54] = tested on: T-47D breast
[55] = tested on: TK-10 renal
[56] = tested on: U251 CNS
[57] = tested on: UACC-257 melanoma
[58] = tested on: UACC-62 melanoma
[59] = tested on: UO-31 renal

Compound: CN(C)CCCN1c2ccccc2CCc2cc([N+](=O)[O-])ccc21
- TGI [1]: 66 µM and 28.9 µM
- TGI [2]: 61.4 µM and 25.8 µM
- TGI [3]: 70.2 µM and 37.7 µM
- TGI [4]: 90.4 µM and 30 µM
- TGI [5]: 45 µM and 31.3 µM
- TGI [6]: 59.7 µM and 32.2 µM
- GI50 [7]: 43.8 µM and 10.7 µM
- TGI [7]: > 100 µM and 27 µM
- TGI [8]: 60.1 µM and 32.4 µM
- TGI [9]: 58.9 µM and 34.6 µM
- TGI [10]: > 100 µM and 37.4 µM
- TGI [11]: 34.1 µM and 25.2 µM
- TGI [12]: 41 µM and 29.7 µM
- TGI [13]: 83.3 µM and 37.4 µM
- GI50 [14]: 19.2 µM and 2.83 µM
- TGI [14]: 54 µM and 9.46 µM
- TGI [15]: 48.6 µM and 30 µM
- GI50 [16]: 21.8 µM and 7.69 µM
- TGI [16]: 58.1 µM and 22.6 µM
- TGI [17]: 71.9 µM and 34.3 µM
- TGI [18]: 41.6 µM and 32.8 µM
- TGI [19]: 53.2 µM and 29.8 µM
- TGI [20]: > 100 µM and 38.6 µM
- TGI [21]: 71 µM and 35.1 µM
- TGI [22]: 37.2 µM and 28.2 µM
- TGI [23]: 38.1 µM and 31.1 µM
- TGI [24]: 33.8 µM and 32.9 µM
- TGI [25]: 79 µM and 31.8 µM
- TGI [26]: 52.7 µM and 30.2 µM
- TGI [27]: 48.4 µM and 31.1 µM
- TGI [28]: 45.3 µM and 29.1 µM
- TGI [29]: > 100 µM and 35.9 µM
- TGI [30]: 68 µM and 32.6 µM
- TGI [31]: 54.1 µM and 36.7 µM
- TGI [32]: 41.7 µM and 29.8 µM
- TGI [33]: 60.6 µM and 31 µM
- TGI [34]: 82 µM and 39.8 µM
- TGI [35]: 48.4 µM and 34.8 µM
- TGI [36]: 69.5 µM and 40.5 µM
- TGI [37]: 63.9 µM and 31.8 µM
- TGI [38]: 71.8 µM and 30 µM
- TGI [39]: 76.8 µM and 34.3 µM
- TGI [40]: 52.6 µM and 41.2 µM
- TGI [41]: 32.8 µM and 26 µM
- TGI [42]: 52.5 µM and 28.8 µM
- TGI [43]: 45.1 µM and 28.4 µM
- TGI [44]: 74.5 µM and 31.4 µM
- TGI [45]: 39.4 µM and 38.8 µM
- GI50 [46]: 28.2 µM and 13.9 µM
- TGI [46]: 80.9 µM and 28.2 µM
- TGI [47]: 31.2 µM and 25.7 µM
- GI50 [48]: 38.7 µM and 17.3 µM
- TGI [48]: > 100 µM and 32.6 µM
- TGI [49]: 60.9 µM and 30.4 µM
- TGI [50]: > 100 µM and 31.7 µM
- TGI [51]: 26.4 µM
- TGI [52]: 90.6 µM and 44 µM
- GI50 [53]: 37.2 µM and 16.3 µM
- TGI [53]: > 100 µM and 32.6 µM
- TGI [54]: 43.9 µM and 37.7 µM
- TGI [55]: 69 µM and 27.8 µM
- TGI [56]: 64.2 µM and 32.9 µM
- TGI [57]: 38 µM and 29.5 µM
- TGI [58]: 29.2 µM and 27.5 µM
- TGI [59]: 70.8 µM and 28.7 µM

Compound: O=C1C[C@H](CCC(=O)OCc2ccccc2)NC(=O)C[C@H](CCC(=O)OCc2ccccc2)NC(=O)C[C@H](CCC(=O)OCc2ccccc2)N1
- TGI [1]: > 100 µM
- TGI [2]: 30.8 µM
- TGI [3]: > 100 µM
- TGI [4]: 69.4 µM
- TGI [5]: > 100 µM
- TGI [6]: > 100 µM
- TGI [7]: > 100 µM
- TGI [8]: > 100 µM
- TGI [9]: > 100 µM
- TGI [10]: > 100 µM
- TGI [11]: > 100 µM
- TGI [12]: > 100 µM
- TGI [13]: > 100 µM
- TGI [15]: > 100 µM
- TGI [16]: 18.8 µM
- TGI [17]: > 100 µM
- TGI [18]: > 100 µM
- TGI [19]: > 100 µM
- TGI [20]: > 100 µM
- TGI [21]: > 100 µM
- TGI [22]: > 100 µM
- TGI [23]: > 100 µM
- TGI [24]: > 100 µM
- TGI [25]: > 100 µM
- TGI [26]: 78.3 µM
- TGI [27]: > 100 µM
- TGI [28]: > 100 µM
- TGI [29]: > 100 µM
- TGI [30]: > 100 µM
- TGI [31]: > 100 µM
- TGI [32]: > 100 µM
- TGI [33]: > 100 µM
- TGI [34]: > 100 µM
- TGI [35]: > 100 µM
- TGI [36]: > 100 µM
- TGI [37]: > 100 µM
- TGI [38]: > 100 µM
- TGI [39]: > 100 µM
- TGI [40]: > 100 µM
- TGI [41]: 8.23 µM
- TGI [43]: 42.8 µM
- TGI [44]: 40.4 µM
- TGI [45]: > 100 µM
- TGI [46]: > 100 µM
- TGI [47]: > 100 µM
- TGI [48]: 29 µM
- TGI [49]: > 100 µM
- TGI [50]: > 100 µM
- TGI [51]: 6.73 µM
- TGI [52]: > 100 µM
- TGI [53]: > 100 µM
- TGI [54]: > 100 µM
- TGI [55]: 25.4 µM
- TGI [56]: > 100 µM
- TGI [57]: > 100 µM
- TGI [58]: > 100 µM
- TGI [59]: > 100 µM

Compound: CNC(=O)Nc1ccccc1
- TGI [1]: > 100 µM
- TGI [2]: > 100 µM
- TGI [3]: > 100 µM
- TGI [4]: > 100 µM
- TGI [5]: > 100 µM
- TGI [6]: > 100 µM
- TGI [7]: > 100 µM
- TGI [8]: > 100 µM
- TGI [9]: > 100 µM
- TGI [10]: > 100 µM
- TGI [11]: > 100 µM
- TGI [12]: > 100 µM
- TGI [13]: > 100 µM
- TGI [14]: > 100 µM
- TGI [15]: > 100 µM
- TGI [16]: > 100 µM
- TGI [17]: > 100 µM
- TGI [18]: > 100 µM
- TGI [19]: > 100 µM
- TGI [20]: > 100 µM
- TGI [21]: > 100 µM
- TGI [22]: > 100 µM
- TGI [23]: > 100 µM
- TGI [24]: > 100 µM
- TGI [25]: > 100 µM
- TGI [26]: > 100 µM
- TGI [27]: > 100 µM
- TGI [28]: > 100 µM
- TGI [29]: > 100 µM
- TGI [30]: > 100 µM
- TGI [31]: > 100 µM
- TGI [32]: > 100 µM
- TGI [33]: > 100 µM
- TGI [34]: > 100 µM
- TGI [35]: > 100 µM
- TGI [36]: > 100 µM
- TGI [37]: > 100 µM
- TGI [38]: > 100 µM
- TGI [39]: > 100 µM
- TGI [40]: > 100 µM
- TGI [41]: > 100 µM
- TGI [42]: > 100 µM
- TGI [43]: > 100 µM
- TGI [44]: > 100 µM
- TGI [45]: > 100 µM
- TGI [46]: > 100 µM
- TGI [47]: > 100 µM
- TGI [49]: > 100 µM
- TGI [50]: > 100 µM
- TGI [51]: > 100 µM
- TGI [52]: > 100 µM
- TGI [53]: > 100 µM
- TGI [54]: > 100 µM
- TGI [55]: > 100 µM
- TGI [56]: > 100 µM
- TGI [57]: > 100 µM
- TGI [58]: > 100 µM
- TGI [59]: > 100 µM
